Measurements: patent US20120029187A1, “HALOALKYLSULFONANILIDE DERIVATIVE” (Nissan Chemical Industries, Ltd., priority 2009, published 2012)

Experiments:
Type in all cases: in vivo
velvetleaf [1] = test: Test Example 3: herbicidal effects in soil treatment
Summary of the method: (§1)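 Seeds were sown in sterilized diluvial soil and covered with about 1.5 cm of soil. Compounds, formulated as emulsifiable concentrates and diluted with water, were sprayed evenly over the soil surface at set doses in g/a. Herbicidal effect was scored on a rating scale three weeks later.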

redroot pigweed [2] = test: as above
Summary of the method: as §1

wild oat [3] = test: as above
Summary of the method: as §1

large crabgrass [4] = test: as above
Summary of the method: as §1

common chickweed [5] = test: as above
Summary of the method: as §1

common ragweed [6] = test: as above
Summary of the method: as §1

barnyardgrass [7] = test: as above
Summary of the method: as §1

Italian ryegrass [8] = test: as above
Summary of the method: as §1

posumbu knotweed [9] = test: as above
Summary of the method: as §1

common lambsquater [10] = test: as above; conditions: dose 6.3 g/a
Summary of the method: as §1

water foxtail [11] = test: as above
Summary of the method: as §1

giant foxtail [12] = test: as above
Summary of the method: as §1

ducksalad [13] = test: Test Example 1: herbicidal effects in preemergence treatment under submerged conditions; conditions: dose 2.52 g/a
Summary of the method: (§2)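 Scoring 0 (<5% mortality) to 5 (≥90%) was done three weeks after preemergence application to the water surface of submerged (4 cm) alluvial soil, doses given as g per are. Weeds were seeded and 2.5-leaf rice transplanted on the treatment day; greenhouse at 25–30 °C.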

barnyardgrass [14] = test: as above; conditions: dose 2.52 g/a
Summary of the method: as §2

bulrush [15] = test: as above; conditions: dose 2.52 g/a
Summary of the method: as §2

velvetleaf [16] = test: Test Example 4: herbicidal effect in foliage treatment; conditions: three weeks after application
Summary of the method: (§3)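 Visual herbicidal scores on a graded scale were recorded three weeks after foliar application. Compounds went on as diluted emulsifiable concentrates at predetermined g/a to plants grown 14 days in a 25 to 30° C greenhouse.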

beadstraw = test: as above; conditions: three weeks after application
Summary of the method: as §3

redroot pigweed [17] = test: as above; conditions: three weeks after application
Summary of the method: as §3

wild oat [18] = test: as above; conditions: three weeks after application
Summary of the method: as §3

large crabgrass [19] = test: as above; conditions: three weeks after application
Summary of the method: as §3

common chickweed [20] = test: as above; conditions: three weeks after application
Summary of the method: as §3

common ragweed [21] = test: as above; conditions: three weeks after application
Summary of the method: as §3

barnyardgrass [22] = test: as above; conditions: three weeks after application
Summary of the method: as §3

Italian ryegrass [23] = test: as above; conditions: three weeks after application
Summary of the method: as §3

posumbu knotweed [24] = test: as above; conditions: three weeks after application
Summary of the method: as §3

common lambsquater [25] = test: as above; conditions: three weeks after application
Summary of the method: as §3

water foxtail [26] = test: as above; conditions: three weeks after application
Summary of the method: as §3

giant foxtail [27] = test: as above; conditions: three weeks after application
Summary of the method: as §3

ducksalad [28] = test: Test Example 2: herbicidal effects during the vegetation period under submerged conditions; conditions: treatment during the vegetation period under submerged conditions; dose 2.52 g/a
Summary of the method: (§4)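 Barnyardgrass, bulrush and ducksalad were co-sown in alluvial soil flooded to 4 cm and grown in a greenhouse at 25 to 30° C. At the 1- or 2-leaf stage, water-diluted emulsifiable concentrates went onto the water surface at set doses (g/a). Herbicidal effect was scored three weeks later on a graded scale.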

barnyardgrass [29] = test: as above; conditions: treatment during the vegetation period under submerged conditions; dose 2.52 g/a
Summary of the method: as §4

bulrush [30] = test: as above; conditions: treatment during the vegetation period under submerged conditions; dose 2.52 g/a
Summary of the method: as §4

transplanted rice = test: Test Example 1: preemergence treatment under submerged conditions, effect on crop; conditions: dose 2.52 g/a
Summary of the method: as §2

CC1OCCN(Cc2ccccc2NS(=O)(=O)C(F)(F)F)C1=O (centres unmarked) [Compound I-4, 2-methyl-4-(2-trifluoromethanesulfonylaminobenzyl)-1,4-oxazinan-3-one]
I: velvetleaf, herbicidal effect (evaluation scale 0-5) (velvetleaf [1]; dose 6.3 g/a): 4 (mortality of at least 70% and less than 90%)
K: redroot pigweed, herbicidal effect (evaluation scale 0-5) (redroot pigweed [2]; dose 6.3 g/a): 4 (mortality of at least 70% and less than 90%)
F: wild oat, herbicidal effect (evaluation scale 0-5) (wild oat [3]; dose 6.3 g/a): 0 (mortality of less than 5% (almost ineffective))
D: large crabgrass, herbicidal effect (evaluation scale 0-5) (large crabgrass [4]; dose 6.3 g/a): 5 (mortality of 90% or above (nearly complete death))
N: common chickweed, herbicidal effect (evaluation scale 0-5) (common chickweed [5]; dose 6.3 g/a): 5 (mortality of 90% or above (nearly complete death))
J: common ragweed, herbicidal effect (evaluation scale 0-5) (common ragweed [6]; dose 6.3 g/a): 5 (mortality of 90% or above (nearly complete death))
A: barnyardgrass, herbicidal effect (evaluation scale 0-5) (barnyardgrass [7]; dose 6.3 g/a): 4 (mortality of at least 70% and less than 90%)
H: Italian ryegrass, herbicidal effect (evaluation scale 0-5) (Italian ryegrass [8]; dose 6.3 g/a): 3 (mortality of at least 40% and less than 70%)
M: posumbu knotweed, herbicidal effect (evaluation scale 0-5) (posumbu knotweed [9]; dose 6.3 g/a): 4 (mortality of at least 70% and less than 90%)
L: common lambsquater, herbicidal effect (evaluation scale 0-5) (common lambsquater [10]): 5 (mortality of 90% or above (nearly complete death))
G: water foxtail, herbicidal effect (evaluation scale 0-5) (water foxtail [11]; dose 6.3 g/a): 5 (mortality of 90% or above (nearly complete death))
E: giant foxtail, herbicidal effect (evaluation scale 0-5) (giant foxtail [12]; dose 6.3 g/a): 3 (mortality of at least 40% and less than 70%)
C: ducksalad, herbicidal effect (evaluation scale 0-5) (ducksalad [13]): 5 (mortality of 90% or above (nearly complete death))
A: barnyardgrass, herbicidal effect (evaluation scale 0-5) (barnyardgrass [14]): 5 (mortality of 90% or above (nearly complete death))
B: bulrush, herbicidal effect (evaluation scale 0-5) (bulrush [15]): 5 (mortality of 90% or above (nearly complete death))
I: velvetleaf, herbicidal effect (velvetleaf [16]; dose 6.3 g/a): 5 (mortality of 90% or above (nearly complete death))
O: beadstraw, herbicidal effect (beadstraw; dose 6.3 g/a): 4 (mortality of at least 70% and less than 90%)
K: redroot pigweed, herbicidal effect (redroot pigweed [17]; dose 6.3 g/a): 3 (mortality of at least 40% and less than 70%)
F: wild oat, herbicidal effect (wild oat [18]; dose 6.3 g/a): 0 (mortality of less than 5% (almost ineffective))
D: large crabgrass, herbicidal effect (large crabgrass [19]; dose 6.3 g/a): 5 (mortality of 90% or above (nearly complete death))
N: common chickweed, herbicidal effect (common chickweed [20]; dose 6.3 g/a): 4 (mortality of at least 70% and less than 90%)
J: common ragweed, herbicidal effect (common ragweed [21]; dose 6.3 g/a): 4 (mortality of at least 70% and less than 90%)
A: barnyardgrass, herbicidal effect (barnyardgrass [22]; dose 6.3 g/a): 5 (mortality of 90% or above (nearly complete death))
H: Italian ryegrass, herbicidal effect (Italian ryegrass [23]; dose 6.3 g/a): 2 (mortality of at least 20% and less than 40%)
M: posumbu knotweed, herbicidal effect (posumbu knotweed [24]; dose 6.3 g/a): 3 (mortality of at least 40% and less than 70%)
L: common lambsquater, herbicidal effect (common lambsquater [25]; dose 6.3 g/a): 4 (mortality of at least 70% and less than 90%)
G: water foxtail, herbicidal effect (water foxtail [26]; dose 6.3 g/a): 5 (mortality of 90% or above (nearly complete death))
E: giant foxtail, herbicidal effect (giant foxtail [27]; dose 6.3 g/a): 4 (mortality of at least 70% and less than 90%)
C: ducksalad, herbicidal effect (evaluation scale 0-5) (ducksalad [28]): 5 (mortality of 90% or above (nearly complete death))
A: barnyardgrass, herbicidal effect (evaluation scale 0-5) (barnyardgrass [29]): 5 (mortality of 90% or above (nearly complete death))
B: bulrush, herbicidal effect (evaluation scale 0-5) (bulrush [30]): 5 (mortality of 90% or above (nearly complete death))

CCCOC(=O)N(c1ccccc1CN1COC(C)(C)CC1=O)S(=O)(=O)C(F)(F)F [II-24]
I: velvetleaf, herbicidal effect (evaluation scale 0-5) (velvetleaf [1]; dose 3.2 g/a): 5 (mortality of 90% or above (nearly complete death))
K: redroot pigweed, herbicidal effect (evaluation scale 0-5) (redroot pigweed [2]; dose 3.2 g/a): 0 (mortality of less than 5% (almost ineffective))
F: wild oat, herbicidal effect (evaluation scale 0-5) (wild oat [3]; dose 3.2 g/a): 0 (mortality of less than 5% (almost ineffective))
D: large crabgrass, herbicidal effect (evaluation scale 0-5) (large crabgrass [4]; dose 3.2 g/a): 4 (mortality of at least 70% and less than 90%)
N: common chickweed, herbicidal effect (evaluation scale 0-5) (common chickweed [5]; dose 3.2 g/a): 3 (mortality of at least 40% and less than 70%)
J: common ragweed, herbicidal effect (evaluation scale 0-5) (common ragweed [6]; dose 3.2 g/a): 4 (mortality of at least 70% and less than 90%)
A: barnyardgrass, herbicidal effect (evaluation scale 0-5) (barnyardgrass [7]; dose 3.2 g/a): 4 (mortality of at least 70% and less than 90%)
H: Italian ryegrass, herbicidal effect (evaluation scale 0-5) (Italian ryegrass [8]; dose 3.2 g/a): 5 (mortality of 90% or above (nearly complete death))
M: posumbu knotweed, herbicidal effect (evaluation scale 0-5) (posumbu knotweed [9]; dose 3.2 g/a): 4 (mortality of at least 70% and less than 90%)
G: water foxtail, herbicidal effect (evaluation scale 0-5) (water foxtail [11]; dose 3.2 g/a): 5 (mortality of 90% or above (nearly complete death))
E: giant foxtail, herbicidal effect (evaluation scale 0-5) (giant foxtail [12]; dose 3.2 g/a): 3 (mortality of at least 40% and less than 70%)
C: ducksalad, herbicidal effect (evaluation scale 0-5) (ducksalad [13]): 5 (mortality of 90% or above (nearly complete death))
A: barnyardgrass, herbicidal effect (evaluation scale 0-5) (barnyardgrass [14]): 5 (mortality of 90% or above (nearly complete death))
B: bulrush, herbicidal effect (evaluation scale 0-5) (bulrush [15]): 5 (mortality of 90% or above (nearly complete death))
a: transplanted rice, effect on crop (evaluation scale 0-5) (transplanted rice): 0 (mortality of less than 5% (almost ineffective))
I: velvetleaf, herbicidal effect (velvetleaf [16]; dose 3.2 g/a): 4 (mortality of at least 70% and less than 90%)
O: beadstraw, herbicidal effect (beadstraw; dose 3.2 g/a): 5 (mortality of 90% or above (nearly complete death))
K: redroot pigweed, herbicidal effect (redroot pigweed [17]; dose 3.2 g/a): 0 (mortality of less than 5% (almost ineffective))
F: wild oat, herbicidal effect (wild oat [18]; dose 3.2 g/a): 0 (mortality of less than 5% (almost ineffective))
D: large crabgrass, herbicidal effect (large crabgrass [19]; dose 3.2 g/a): 4 (mortality of at least 70% and less than 90%)
N: common chickweed, herbicidal effect (common chickweed [20]; dose 3.2 g/a): 4 (mortality of at least 70% and less than 90%)
J: common ragweed, herbicidal effect (common ragweed [21]; dose 3.2 g/a): 3 (mortality of at least 40% and less than 70%)
A: barnyardgrass, herbicidal effect (barnyardgrass [22]; dose 3.2 g/a): 5 (mortality of 90% or above (nearly complete death))
H: Italian ryegrass, herbicidal effect (Italian ryegrass [23]; dose 3.2 g/a): 4 (mortality of at least 70% and less than 90%)
M: posumbu knotweed, herbicidal effect (posumbu knotweed [24]; dose 3.2 g/a): 3 (mortality of at least 40% and less than 70%)
L: common lambsquater, herbicidal effect (common lambsquater [25]; dose 3.2 g/a): 0 (mortality of less than 5% (almost ineffective))
G: water foxtail, herbicidal effect (water foxtail [26]; dose 3.2 g/a): 5 (mortality of 90% or above (nearly complete death))
E: giant foxtail, herbicidal effect (giant foxtail [27]; dose 3.2 g/a): 4 (mortality of at least 70% and less than 90%)
C: ducksalad, herbicidal effect (evaluation scale 0-5) (ducksalad [28]): 5 (mortality of 90% or above (nearly complete death))
A: barnyardgrass, herbicidal effect (evaluation scale 0-5) (barnyardgrass [29]): 5 (mortality of 90% or above (nearly complete death))
B: bulrush, herbicidal effect (evaluation scale 0-5) (bulrush [30]): 5 (mortality of 90% or above (nearly complete death))
